From patent US20140193383A1, “USE OF LACTOBACILLUS KEFIRANOFACIENS AS A PROBIOTIC AND A SYNBIOTIC” (Technologies Biolactis Inc., priority 2005, published 2014)

Experiments:
[1] = system: DSS-induced intestinal inflammation; experiment: Effect of live, pasteurized or irradiated bacteria on DSS intestinal inflammation; assay type: in vivo, C57BL/6 mice
Experimental: C57BL/6 mice were treated by gavage (p.o.) with 10^8 cfu/ml of different L. kefiranofaciens strains once per day for the duration of the experiment. Animals received the strains R2C2 or BioSP as live, pasteurized or irradiated bacteria. Intestinal inflammation was induced by the addition of DSS (2.5%) to the drinking water for 8 days and then replaced with fresh water for 8 days to evaluate the rapidity of recovery process from inflammation for the different treatment groups. The level and progression of inflammation was evaluated through measurements of weight variation and combined scores of diarrhea and occult blood. Colon length and myeloperoxidase (MPO) activity in the colon were also evaluated at the end of the experiment.

[2] = system: oxazolone-induced atopic contact dermatitis; experiment: Atopic contact dermatitis, prophylactic protocol (MPM); assay type: in vivo, CD-1 mice; details: Protection against atopic contact dermatitis (day 9); Controls 0.45
Description: (§1) A murine model of atopic contact dermatitis induced with oxazolone in mice was used to determine the anti-inflammatory effect of the whey fermented with Lactobacillus kefiranofaciens […]. This model of inflammation has proven to be a sensitive and useful tool to determine efficacy and potency of several anti-inflammatory and immunosuppressive drugs used in dermatological disorders like psoriasis for example. Drugs like glucocorticoids are commonly used to relieve skin and joint inflammation. Whey fermented with […] administered orally either in a prophylactic (Table 24) or therapeutic fashion (Table 23) reduced the inflammation as shown with a reduction of around 30% of ear and thickness in both cases. […] The ear thickness of the mice was measured every day. The prophylactic anti-inflammatory potential of MPM (patent PCT/CA2002/01988) was evaluated firstly by the administration of MPM, 7 days prior to sensitization. […] Dermatitis was induced as described previously and ear thickness was measured every day. The therapeutic anti-inflammatory potential of MPM was evaluated by the administration of MPM only after the first challenge. […] The mouse atopic contact dermatitis was done as described previously and ear thickness was measured every day. The mice's weight was measured twice a week.

[3] = system: oxazolone-induced atopic contact dermatitis; experiment: Atopic contact dermatitis, therapeutic protocol (MPM); assay type: in vivo, CD-1 mice; details: Treatment of atopic contact dermatitis (day 17); Controls 0.55
Description: as §1

[4] = system: oxazolone-induced atopic contact dermatitis; experiment: Atopic contact dermatitis, therapeutic protocol (R2C2); assay type: in vivo, mice
Description: A murine model of atopic contact dermatitis induced with oxazolone in mice was used to determine the anti-inflammatory effect of the whey fermented with Lactobacillus kefiranofaciens […]. This model of inflammation has proven to be a sensitive and useful tool to determine efficacy and potency of several anti-inflammatory and immunosuppressive drugs used in dermatological disorders like psoriasis for example. Drugs like glucocorticoids are commonly used to relieve skin and joint inflammation. Whey fermented with […] administered orally either in a prophylactic (Table 24) or therapeutic fashion (Table 23) reduced the inflammation as shown with a reduction of around 30% of ear and thickness in both cases. In more details, the murine model of atopic contact dermatitis was based on those firstly described by Garrigue et al. (Contact Dermatitis., 30(4):[…], 1994) and modified as follows: the CD-1 mice's abdomen were removed of hair and the sensitization phase was done with the application of 100 microliters of oxazolone 5% in acetone on the abdomen (Sigma-Aldrich, Oakville, On). After 4 days, the elicitation phase (first challenge) was done with application of 50 microliters of oxazolone 5% in acetone on the right ear (25 microliters each side of the ear). The second challenge was done 7 days after the first challenge with the same procedure. The ear thickness of the mice was measured every day. The therapeutic anti-inflammatory potential of […] was evaluated in an animal model of atopic contact dermatitis by feeding the bacterial suspension after the first challenge. The protective effect of […] was compared to that of hydrocortisone, because of its well-known anti-inflammatory effects on dermatitis.

[5] = system: systolic blood pressure of SHR rats; experiment: Anti-hypertensive potential in SHR rats (tail-cuff SBP); assay type: in vivo, SHR female rats
Experimental: Anti-hypertensive potential of whey fermented with […] (MPM) was evaluated by using SHR female rats (6 weeks old). 12 rats were randomized according to their weight in each treatment group. They were housed under specific pathogen-free conditions and maintained in a 12 hour-light/dark cycle. All animals consumed standard diet and received water ad libitum. Groups were forced-fed daily either 1 mL of water (placebo group), MPM (5 mL/kg) or Enalapril-malate (10 mg/kg), because of its well-known hypotensive effects. Systolic blood pressure (SBP) was measured weekly by the tail-cuff method with the automated RTBP2000 Tail Blood Pressure system (Kent Scientific, Torrington, Conn., USA). Data collections were made weekly and an average of 3 measurements was taken as initial mean SBP. Data was acquired and analysed with Biopac Student Lab Pro® software version 3.6.1 (Biopac System, Goleta, Calif., USA). […] A steady decrease of the SBP was observed every week with a maximum change of at least 25% at week 4 for the animals forced-fed with MPM.

[6] = system: poloxamer 407 induced hyperlipidemia; experiment: Poloxamer 407 rat model of hyperlipidemia (strains); assay type: in vivo, Wistar rats
Experimental: (§2) The different bacterial strains were tested for their capacity to regulate blood lipid levels in a rat model of hyperlipidemia. […] Wistar rats injected i.p. with poloxamer 407 rapidly develop severe but transient hyperlipidemia. […] The hypo-lipidemic effect of L. kefiranofaciens strains is evaluated in groups of rats pre-treated orally for 7 days before injection of poloxamer. Blood lipids were measured before injection and at 24 and 72 hours following induction of hyperlipidemia. Plasma levels of triglycerides, and cholesterol (LDL) were evaluated.
Group 1: 4 rats, gavage saline Group 2: 4 rats, gavage niacin (100 mg/kg) Group 3: 4 rats, gavage R2C2 (1×10^8 cfu/ml) Group 4: 4 rats, gavage INIX (1×10^8 cfu/ml) Group 5: 4 rats, gavage BioSP (1×10^8 cfu/ml) Group 6: 4 rats, gavage K2 (1×10^8 cfu/ml)

[7] = system: poloxamer 407 induced hyperlipidemia; experiment: Anti-triglyceridemia potential, poloxamer 407 rats (Example 6); assay type: in vivo, female Wistar rats
Experimental: For the experiment, female Wistar rats, 7 weeks old, weighing 125-150 g. were purchased from Charles River Canada. Rats were randomized into 4 different groups, each composed of at least 6 animals. […] They were housed under specific pathogen-free conditions and maintained in a […] light/dark cycle. All animals consumed standard diet and received water ad libitum. MPM was in a lyophilized form and prepared daily by adding 80% of water and mixed to create back a yoghurt-like product. The bacterial strain Lactobacillus […] was routinely cultured in MRS broth (BD Biosciences, Mississauga, ON, Canada) at 37° C. for a period of 24 h. Bacteria were then pelleted by centrifugation at 4000 rpm for 8 minutes and re-suspended at a concentration of 10^9 cells/mL in sterile PBS (Invitrogen). Niacin was dissolved in water in order for the rats to receive a dose of 100 mg of treatment per kg. […] The poloxamer 407 solution for intraperitoneal (i.p.) injection was prepared by combining the agent with sterile water and refrigerating overnight to facilitate dissolution of the polymer by the cold method of incorporation. […] Approximately 1 mL of blood was collected from the jugular vein in 3 mL syringes and immediately transferred in lithium-heparinized plastic tubes (Sarstedt, Montreal, QC, Canada). Tubes were lightly shaken for 10 seconds, and then centrifuged to allow separation of the plasma. Plasma samples were collected in clean 1.5 mL eppendorf and immediately frozen at -80° C. until the time of analysis. For blood collection, each animal was anesthetized using isoflurane (AErrane, Baxter Corporation, Deerfield, Ill., USA). […] Animals were sacrificed after the last blood collection by the CO2 asphyxia method. […] Samples from all experimental groups were analyzed for total cholesterol and triglycerides. All analysis were performed in an independent laboratory (Laboratoire medical Biron, 4105-[…] Blvd, Brossard, Québec, Canada, J4Y 2P4), ISO 9002 certified, offering a reliable plasma lipids quantification service.

[8] = system: poloxamer 407 induced hyperlipidemia; experiment: Model of hyperlipidemia, poloxamer 407 (Example 8a); assay type: in vivo, Wistar rats
Experimental: as §2, with “whey fermented with L. kefiranofaciens R2C2 was” for “different bacterial strains were”, “triglycerides, cholesterol, HDL, LDL” for “triglycerides,”, “glucose” for “cholesterol (LDL)”
Group 1: 4 rats, gavage saline Group 2: 4 rats, gavage niacin (100 mg/kg) Group 3: 4 rats, gavage whey fermented with L. kefiranofaciens R2C2 (1 ml per gavage)

[9] = system: diet-induced hyperlipidemia and weight gain; experiment: Model of hypertriglyceridemia and obesity (fructose 10% in drinking water); assay type: in vivo, Wistar rats
Experimental: The whey fermented with L. kefiranofaciens […] was tested for its capacity to regulate weight gain and blood lipid levels in a diet-induced rat model of hyperlipidemia. This protocol allows a comparison to niacin (vitB3) in regulating diet-induced hyperlipidemia in rats. […] The hypo-lipidemic effects of the whey fermented with L. kefiranofaciens […] during the fructose treatment period were evaluated. Blood samples are collected before the start of fructose treatment, and once a week for 4 weeks during the induction of hyperlipidemia. Serum levels of triglycerides were measured.

[10] = system: visceral fat in Spontaneous Hypertensive Rat; experiment: Weight and fat management, SHR model (visceral fat); assay type: in vivo, SHR rats; details: once a day for 56 days, saline 100
Experimental: The whey fermented with L. kefiranofaciens R2C2 was tested for its capacity to regulate fat distribution as well as weight gain in the Spontaneous Hypertensive Rat model and in ovariectomized rats. The SHR model was used as previously described but used to monitor the levels of visceral fat accumulating in the belly following. The animals were fed with 1 ml of whey fermented with L. kefiranofaciens R2C2 (20% solid) once a day for 56 days (P.O. q1×56)
Group 1: 12 rats, gavage saline Group 2: 12 rats, gavage niacine (100 mg/kg) Group 3: 12 rats, gavage whey fermented with L. kefiranofaciens R2C2 (1 ml per gavage)

[11] = plasma, before poloxamer, saline 1.55

Nc1ccc(O)c(C(=O)O)c1 [5-ASA]
Weight loss (%) associated with 8 days of DSS exposure ([1]; Day 5, DSS+saline −1.83): −3.21% | Combined occult blood and diarrhea scores (scale of 8) ([1]; Day 5 of DSS, DSS+saline 2.25): 1.75 | Weight loss (%) associated with 8 days of DSS exposure ([1]; Day 6, DSS+saline −5.23): −3.64% | Combined occult blood and diarrhea scores (scale of 8) ([1]; Day 6 of DSS, DSS+saline 4.50): 3.75 | Weight loss (%) associated with 8 days of DSS exposure ([1]; Day 7, DSS+saline −8.79): −5.90% | Combined occult blood and diarrhea scores (scale of 8) ([1]; Day 7 of DSS, DSS+saline 6.50): 4.25 | Weight loss (%) associated with 8 days of DSS exposure ([1]; Day 8, DSS+saline −13.5): −8.07% | Combined occult blood and diarrhea scores (scale of 8) ([1]; Day 8 of DSS, DSS+saline 6.50): 5.50 | MPO activity (U/g of tissue) ([1]; colon, post-mortem, 8 days DSS and 8 days of recovery, no DSS 0.056, DSS+saline 0.226): 0.043 U/g of tissue | Protective effect on DSS inflammation ([1]; live, pasteurized or irradiated bacteria, 5-ASA comparator): comparable protective effects

C[C@]12CCC(=O)C=C1CC[C@@H]1[C@@H]2[C@@H](O)C[C@@]2(C)[C@H]1CC[C@]2(O)C(=O)CO [Hydrocortisone, hydrocortisone]
Ear thickness (mm) [2]: 0.30 mm | Ear thickness (mm) [3]: 0.29 mm | ear thickness (mm) ([4]; Day 15, Controls 0.26): 0.18 mm | ear thickness (mm) ([4]; Day 17, Controls 0.39): 0.27 mm | ear thickness (mm) ([4]; Day 22, Controls 0.34): 0.15 mm

CCOC(=O)[C@H](CCc1ccccc1)N[C@@H](C)C(=O)N1CCC[C@H]1C(=O)O [Enalapril, Enalapril-malate]
Systolic blood pressure (mm Hg) ([5]; Week 0, Controls 185): 184 mm Hg | Systolic blood pressure (mm Hg) ([5]; Week 1, Controls 181): 165 mm Hg | Systolic blood pressure (mm Hg) ([5]; Week 2, Controls 184): 156 mm Hg | Systolic blood pressure (mm Hg) ([5]; Week 3, Controls 183): 154 mm Hg | Systolic blood pressure (mm Hg) ([5]; Week 4, Controls 187): 154 mm Hg

O=C(O)c1cccnc1 [Niacin, niacin]
Plasma triglycerides after pre-treatment of 7 days ([6]; before poloxamer): plasma triglycerides were reduced | Triglycerides (mmol/L) after 7 days of treatment [6, 11]: 0.97 mmol/L | Triglycerides (mmol/L) 72 h post-induction of hyperlipidemia ([6]; plasma, saline 95.42): 69.96 mmol/L | Plasma triglycerides 72 hours after induction of hyperlipidemia ([6]; rat, in vivo): most important reduction | CH levels (72 hours post induction of hyperlipidemia) (%) ([7]; cholesterol, Controls 100): 33% | Triglyceride levels (7-day treatment) ([7]; plasma, before poloxamer 407, Controls 1.83): 1.00 mmol/L | Triglyceride levels (72 hours post induction of hyperlipidemia) ([7]; plasma, Controls 95.42): 66.96 mmol/L | Triglycerides (mmol/L) after 7 days of treatment [8, 11]: 0.97 mmol/L | Triglycerides (mmol/L) 72 h post-induction of hyperlipidemia ([8]; plasma, saline 97.72): 69.96 mmol/L | Plasma triglycerides after pre-treatment of 7 days ([8]; rat, in vivo): plasma triglycerides were reduced | Levels of triglyceride, % relative to saline on day 0 ([9]; Day 0, saline 100): 100% | Levels of triglyceride, % over saline group ([9]; Day 7 of fructose, saline 260): 150% | Levels of triglyceride, % over saline group ([9]; Day 21 of fructose, saline 270): 160% | % of animals with visceral fat [10]: 70%
